From ChEMBL document CHEMBL1201862, “PubChem BioAssay data set” (2004)
The source made the active and inactive calls.

Columns and labels:
[1] = target: Cytochrome P450 3A4 (Homo sapiens, UniProt P08684);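 further: CYP3A4 tested as one member of a cytochrome P450 panel screen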
[2] = Luminescence Cell-Based Dose Confirmation HTS to Identify Activators of 5'UTR Stem-Loop Driven Alpha-Synuclein mRNA Translation in H4 Neuroglioblastoma Cells. [Related pubchem assays: 1829 (Project Summary), 1814 (Primary HTS)]; assay type: functional
[3] = Luminescence Cell-Based Dose Response HTS to Identify Activators of Luciferase Translation or Activity in H4 […] Cells. [Related pubchem assays: 1829 (Project Summary), 1814 (Primary HTS)]; assay type: functional
[4] = test system: H4; test: Luminescence Cell-Based Dose Response HTS to Identify Activators of 5'UTR Stem-Loop Driven Prion Protein mRNA Translation in H4 Neuroglioblastoma Cells. [Related pubchem assays: 1829 (Project Summary), 1814 (Primary HTS)]; assay type: functional; details: Homo sapiens
[5] = target: Cytochrome P450 2C19 (Homo sapiens, UniProt P33261); test: Cytochrome panel assay with activity outcomes. Panel member name: p450-cyp2c19 Compounds with AC50 equal or less than 10 uM are considered active; assay type: functional
[6] = target: T1, Cytochrome P450 1A2 (Homo sapiens, UniProt P05177);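 further: PubChem cytochrome P450 panel assay, CYP1A2 panel member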
T1 sequence (P05177 whole entry): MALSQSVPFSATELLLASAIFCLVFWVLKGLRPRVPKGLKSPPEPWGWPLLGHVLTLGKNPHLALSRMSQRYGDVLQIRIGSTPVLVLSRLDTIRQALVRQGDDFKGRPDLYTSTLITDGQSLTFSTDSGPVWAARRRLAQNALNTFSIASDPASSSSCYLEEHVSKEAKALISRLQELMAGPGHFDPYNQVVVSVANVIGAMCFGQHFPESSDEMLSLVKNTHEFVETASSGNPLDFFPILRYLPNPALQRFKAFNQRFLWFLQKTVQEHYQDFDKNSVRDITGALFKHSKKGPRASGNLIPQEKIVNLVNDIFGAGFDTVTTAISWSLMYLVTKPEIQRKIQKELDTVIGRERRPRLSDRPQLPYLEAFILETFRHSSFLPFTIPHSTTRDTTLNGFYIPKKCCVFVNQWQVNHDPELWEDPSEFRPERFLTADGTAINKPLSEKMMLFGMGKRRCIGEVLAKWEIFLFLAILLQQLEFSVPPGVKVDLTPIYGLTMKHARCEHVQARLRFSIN

[7] = target: Cytochrome P450 2C9 (Homo sapiens, UniProt P11712)
[8] = target: Cytochrome P450 2D6 (Homo sapiens, UniProt P10635);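 further: CYP2D6 member of a cytochrome P450 panel assay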
Cytochrome P450 2D6, sequence (P10635 whole entry): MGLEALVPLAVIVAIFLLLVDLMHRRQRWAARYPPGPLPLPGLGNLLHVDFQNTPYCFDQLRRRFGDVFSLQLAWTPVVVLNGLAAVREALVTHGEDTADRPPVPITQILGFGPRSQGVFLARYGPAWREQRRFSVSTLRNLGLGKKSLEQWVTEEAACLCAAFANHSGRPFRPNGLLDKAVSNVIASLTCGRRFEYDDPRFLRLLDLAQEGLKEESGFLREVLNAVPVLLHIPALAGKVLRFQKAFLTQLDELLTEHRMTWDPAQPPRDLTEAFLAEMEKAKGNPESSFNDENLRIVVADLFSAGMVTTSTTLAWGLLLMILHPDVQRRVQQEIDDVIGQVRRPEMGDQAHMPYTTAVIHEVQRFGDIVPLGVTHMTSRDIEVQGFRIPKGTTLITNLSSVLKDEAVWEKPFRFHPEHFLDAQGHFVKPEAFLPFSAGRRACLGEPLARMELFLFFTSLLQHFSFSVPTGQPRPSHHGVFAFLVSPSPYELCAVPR

Cytochrome P450 2C19, sequence (P33261 whole entry): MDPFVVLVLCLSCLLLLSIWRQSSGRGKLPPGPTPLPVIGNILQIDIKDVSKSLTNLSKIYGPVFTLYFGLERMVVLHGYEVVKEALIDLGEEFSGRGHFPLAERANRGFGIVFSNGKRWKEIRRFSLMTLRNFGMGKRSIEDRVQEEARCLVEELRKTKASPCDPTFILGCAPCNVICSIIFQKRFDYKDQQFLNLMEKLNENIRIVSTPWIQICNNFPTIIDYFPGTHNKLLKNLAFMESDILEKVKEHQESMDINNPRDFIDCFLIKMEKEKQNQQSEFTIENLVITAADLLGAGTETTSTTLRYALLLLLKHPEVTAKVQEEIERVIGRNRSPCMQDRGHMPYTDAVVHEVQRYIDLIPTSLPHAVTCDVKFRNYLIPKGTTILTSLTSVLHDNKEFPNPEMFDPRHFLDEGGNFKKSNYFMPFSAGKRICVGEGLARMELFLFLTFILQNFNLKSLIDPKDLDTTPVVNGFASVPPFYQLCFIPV
Cytochrome P450 3A4, sequence (P08684 whole entry): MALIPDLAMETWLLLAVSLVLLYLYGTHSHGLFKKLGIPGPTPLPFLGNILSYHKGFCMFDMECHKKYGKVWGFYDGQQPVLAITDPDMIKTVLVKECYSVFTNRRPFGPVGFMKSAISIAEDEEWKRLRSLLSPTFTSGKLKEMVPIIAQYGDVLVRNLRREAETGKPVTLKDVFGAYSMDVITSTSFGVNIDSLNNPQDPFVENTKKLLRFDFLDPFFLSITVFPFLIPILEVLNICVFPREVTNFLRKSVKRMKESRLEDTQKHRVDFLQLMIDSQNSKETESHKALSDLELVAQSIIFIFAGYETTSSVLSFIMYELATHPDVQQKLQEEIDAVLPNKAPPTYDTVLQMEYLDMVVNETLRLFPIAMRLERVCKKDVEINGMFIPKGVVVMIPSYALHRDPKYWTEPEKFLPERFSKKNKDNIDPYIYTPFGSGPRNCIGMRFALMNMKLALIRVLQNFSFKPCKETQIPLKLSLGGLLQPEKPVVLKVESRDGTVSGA
Cytochrome P450 2C9, sequence (P11712 whole entry): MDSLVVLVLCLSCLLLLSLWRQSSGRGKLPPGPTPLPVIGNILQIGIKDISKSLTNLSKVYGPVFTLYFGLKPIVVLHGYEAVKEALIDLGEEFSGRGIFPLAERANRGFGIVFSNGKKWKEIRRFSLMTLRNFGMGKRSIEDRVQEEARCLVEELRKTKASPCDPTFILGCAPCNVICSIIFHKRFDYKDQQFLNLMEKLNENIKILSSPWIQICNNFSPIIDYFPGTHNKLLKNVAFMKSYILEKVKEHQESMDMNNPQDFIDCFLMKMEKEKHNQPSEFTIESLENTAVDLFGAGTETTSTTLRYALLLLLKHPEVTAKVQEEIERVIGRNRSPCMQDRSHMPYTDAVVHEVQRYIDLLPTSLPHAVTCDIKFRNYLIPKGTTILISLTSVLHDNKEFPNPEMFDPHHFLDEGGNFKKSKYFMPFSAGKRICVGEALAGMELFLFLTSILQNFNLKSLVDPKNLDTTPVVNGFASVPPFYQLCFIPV

Compound	AC50 [1]	AC50 ([5]; read-out: AC50)	also measured
Fc1ccc(-c2csc(N3CCC(c4ccccc4)C3)n2)cc1 (centres undefined)	28.2 µM (inconclusive)		
CCOc1ccc2nc(NC(=O)CSc3nnc(-c4ccncc4)n3CC3CCCO3)sc2c1 (centres undefined)			EC50 [2]: 7.45 µM (active); EC50 [3]: 8.04 µM (active); EC50 [4]: 11.8 µM (active)
C(=N\n1cnnc1)/c1cccn1-c1ccccc1	39.8 µM (inconclusive)	0.0251 µM (inconclusive)	
CCOc1cc(NC(=O)c2ccccc2C)c(OCC)cc1N=C(S)NCC1CCCO1 (centres undefined)		11.2 µM (inconclusive)	
COc1ccc(C2SCC(=O)Nc3c2c(C)nn3-c2ccccc2)cc1OC (centres undefined)	12.6 µM (inconclusive)		AC50 [6]: 22.4 µM (inconclusive)
CCCCN(C(S)=Nc1ccccc1)C1CCS(=O)(=O)C1 (centres undefined)	22.4 µM (inconclusive)		
CCCCCCCCCCCCC/C=C\[C@@H](O)[C@@H](N)CO		25.1 µM (inconclusive)	AC50 [7]: 39.8 µM (inconclusive)
CC(C)=NOCc1cccc(-c2cc(-c3ccccc3)no2)c1	6.31 µM (inconclusive)		
CCCCN1C(=O)C(NC(=O)CC(C)C)(C(F)(F)F)C2=C1CC(C)(C)CC2=O (centres undefined)		25.1 µM (inconclusive)	AC50 [7]: 5.62 µM (inconclusive)
CCOC(=O)c1ccccc1NC(=O)CSc1cccc[n+]1[O-]		22.4 µM (inconclusive)	AC50 [6]: 25.1 µM (inconclusive)
CCOc1ccc(-c2nnc(-c3ccncc3)o2)cc1	1.58 µM (inconclusive)		
COc1ccc(-c2cc(C(=O)Nc3cccc(Cl)c3)no2)cc1			EC50 [4]: 0.184 µM (active)
COCCn1c(=O)c(-c2ccc(Cl)cc2)nc2cncnc21	12.6 µM (inconclusive)	39.8 µM (inconclusive)	AC50 [7]: 31.6 µM (inconclusive)
C(=C/c1ccccc1)/C=N/c1ccc2c(c1)Cc1ccccc1-2	3.98 µM (inconclusive)		
Cc1onc(-c2ccccc2)c1C(=O)NC(CC(=O)O)c1ccc(OC(C)C)cc1 (centres undefined)	28.2 µM (inconclusive)	7.08 µM (inconclusive)	AC50 [7]: 15.8 µM (inconclusive)
CCNc1ncc2nc(-c3cccc(C#N)c3)c(=O)n(CCC#N)c2n1	7.94 µM (inconclusive)		AC50 [6]: 0.631 µM (inconclusive)
COC(=O)C1(Cc2ccccc2)C=C2C(=C(C(C)C)C(=O)C2C)CN1 (centres undefined)		39.8 µM (inconclusive)	AC50 [6]: 15.8 µM (inconclusive); AC50 [7]: 31.6 µM (inconclusive)
Cc1ccc(NC(=S)N2CCN(C3CCCCC3)CC2)cc1	10 µM (inconclusive)		
COc1ccccc1-c1cncnc1-n1ccnc1		25.1 µM (inconclusive)	AC50 [8]: 25.1 µM (inconclusive)
COc1ccc(-c2coc3cc(OC)cc(O)c3c2=O)cc1 [4',7-DIMETHOXY-5-HYDROXYGENISTEIN]		25.1 µM (inconclusive)	AC50 [7]: 2.82 µM (inconclusive)
O=c1[nH]ncc2c3ccccc3n(Cc3ccccc3)c12		2.51 µM (inconclusive)	AC50 [7]: 2 µM (inconclusive)
CCCCNc1nc(SC)nc2[nH]cnc12	3.16 µM (inconclusive)	3.16 µM (inconclusive)	AC50 [8]: 2.51 µM (inconclusive)
CC(C)(C)CC(C)(C)c1ccc(O)c(C[N+](C)(C)[O-])c1	5.01 µM (inconclusive)		AC50 [8]: 7.94 µM (inconclusive)
CNC(=O)c1cc2c(cn1)[nH]c1ccccc12	39.8 µM (inconclusive)		AC50 [5]: inconclusive; AC50 [7]: 31.6 µM (inconclusive)
CC1(CCC#N)N=C(SCCC#N)N(c2ccccc2)C1=O (centres undefined)		25.1 µM (inconclusive)	
CCOC(=O)c1c(C)n(C)c2ccc(OC)c(NC(=O)CN3CCCCC3)c12	14.1 µM (inconclusive)	11.2 µM (inconclusive)	AC50 [8]: 20 µM (inconclusive)
Cc1cc(C)c(C(N)=O)c(SCC(=O)c2ccc(Cl)cc2)n1	31.6 µM (inconclusive)		AC50 [6]: 15.8 µM (inconclusive)
NC(=O)C1CC(=O)N(c2ccc(OCc3ccc(Cl)cc3)cc2)C1 (centres undefined)			EC50 [2]: 19.2 µM (active); EC50 [3]: 42.6 µM (active)
